Measurements taken from patent US20250230154A1, “COMPOUND HAVING SHP2 PROTEIN DEGRADING ACTIVITY, AND MEDICAL USES THEREOF” (UBIX THERAPEUTICS, INC., priority 2021, published 2025).

Biological target: T1, SHP2 protein (Homo sapiens, UniProt Q06124)
T1 sequence (Q06124 1-593): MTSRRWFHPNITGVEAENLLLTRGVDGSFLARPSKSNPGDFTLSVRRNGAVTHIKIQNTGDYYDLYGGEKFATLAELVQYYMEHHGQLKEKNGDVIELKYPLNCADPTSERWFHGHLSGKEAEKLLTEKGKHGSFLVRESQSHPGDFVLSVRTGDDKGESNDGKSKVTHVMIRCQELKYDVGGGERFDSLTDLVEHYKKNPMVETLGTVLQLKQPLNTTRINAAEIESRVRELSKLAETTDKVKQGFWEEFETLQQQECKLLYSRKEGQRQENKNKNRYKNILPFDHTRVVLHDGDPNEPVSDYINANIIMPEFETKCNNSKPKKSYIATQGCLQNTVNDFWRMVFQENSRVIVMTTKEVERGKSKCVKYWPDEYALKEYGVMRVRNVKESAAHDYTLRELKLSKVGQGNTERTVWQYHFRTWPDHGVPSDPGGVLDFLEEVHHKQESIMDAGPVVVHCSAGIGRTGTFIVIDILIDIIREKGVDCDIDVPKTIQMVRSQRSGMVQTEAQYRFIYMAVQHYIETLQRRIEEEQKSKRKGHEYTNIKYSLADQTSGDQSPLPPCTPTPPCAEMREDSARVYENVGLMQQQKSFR
Assay: Measurement of SHP2 protein degradation in MV-4-11 cells (western blotting)
Assay type: cell-based
Design: endogenous in cells; host or cells: MV-4-11
Conditions: MV-4-11 cells, 24 hours
Protocol: Experimental Example 2: Measurement of SHP2 Protein Degradation in MV-4-11 Cells
MV-4-11 cells were treated with the synthesized Example compound, and the amount of SHP2 protein present in the cells was measured using western blotting detection. The protocol of the experiment conducted using MV-4-11 cells was as follows:
[Culture] MV-4-11 cells resuspended in IMDM MEDIUM (Hyclone, SH30228.01) containing 5% FBS (Hyclone, SV30207.02) and 1% Penicillin-streptomycin (Welgene, LS 202-02) were seeded at a density of 1×10^6/mL/well in a 12-well plate in an amount of 1 ml each.
[Compound treatment] The 12-well plate was treated as follows: Cells were treated with compounds at a final concentration of […] made by serial dilution of 10 mM stock with DMSO in 1/100 increments […]. After 24 hours, cells were harvested. For the negative control group, DMSO diluted 1/100 to the media (3 mL DMSO+297 mL media) was added.
[Harvest] Each well was collected in a 1.5 mL microtube by pipetting with a 1 mL pipette and centrifuged (500 g, 5 min, 4° C.). The supernatant was removed. It was washed with PBS, and then centrifuged again (500 g, 5 min, 4° C.). Thereafter, the supernatant was removed to prepare a pellet.
[Cell Lysis and Sample preparation] Lysis buffer was prepared as follows: […] of RIPA buffer (Biosesang, RC2038-050-00)+0.5 mM PMSF (SIGMA, P7626)+1× Protease/Phosphatase Inhibitor (Cell signaling, 5872S) per well was added and placed on ice for 30 minutes (vortexing at 0 and 30 minutes, respectively). After sonication process (10 seconds pulse, 30 seconds rest, 5 cycles, 70% amplification), centrifugation (15000 g, 15 min, 4° C.) was performed, and then only the supernatant was taken and transferred to a microtube. The sample was diluted ¼ with RIPA buffer in a 96-well plate, and mixed with A:B=50:1 of the BCA Protein Assay Kit (iNtRON, 21071). […] each of the mixture was left at 37° C. for 30 minutes, and cooled for 10 minutes. Then, absorbance was measured at 562 nm with the SYNERGY H1 microplate reader from BioTek. After making a sample by quantifying the protein with the measured value, boiling was performed at 70° C. for 10 minutes. At this time, the sample buffer used was a mixture of NuPAGE or Bolt 4× sample buffer (Invitrogen) and each 10× sample reducing agent according to the gel to be used, and RIPA buffer was used for protein dilution.
[Western blotting detection method] The same amount of sample was loaded on NuPAGE or Bolt Bis-tris 4-12% gradient gel and run (200 V, 35 minutes). It was transferred to 0.2 mm NC membrane with Trans-blot Turbo (BIO-RAD) (1.3 A constant, 25 V limit, 15 minutes). Blocking was performed at room temperature for 1 hour with Skim milk or Intercept Blocking Buffer (LI-COR, 927-60001):0.1% TBST=1:1. Anti-SHPTP2 Mouse (1:500 in 2% BSA/0.2% TBST, size: 70 kDa, Santacruz sc-7384) was incubated overnight at 4° C., and Anti-GAPDH Rabbit (1:2,000 in 2% BSA/0.2% TBST, size: 37 kDa, CST #2118) was incubated at room temperature for 1 hour 30 minutes or 3 hours. It was washed 3 times for 5 minutes each with 0.2% TBST washing buffer. Secondary antibody Anti-Rabbit IgG (1:5,000 in 2% BSA/0.2% TBST, CST), IRDye® 680RD Goat anti-Rabbit IgG Secondary Antibody (1:10,000 in 2% BSA/0.2% TBST, LI-COR 926-68071) were added and incubated for 45 minutes on a rocker at room temperature. It was washed 5 times for 5 minutes each with 0.2% TBST washing buffer and detected with LI-COR's Odyssey. At this time, SHPTP2 was detected using SuperSignal West Pico PLUS Chemiluminescent Substrate, and house-keeping genes were also detected.
In the results of Table 4 below, Compounds 1-7, 13-19, and 21-26 are results in KYSE-520 cells, and the others are results in MV-4-11 cells.

Row | SHP2 degradation (%) 10 nM | SHP2 degradation (%) 100 nM | SHP2 degradation (%) 1000 nM | Compound
1 | 54.9% | 99.0% | – | Cc1ncsc1-c1ccc(CNC(=O)[C@@H]2C[C@@H](O)CN2C(=O)[C@@H](NC(=O)C2(F)CC2)C(C)(C)C)c(OCCCN2CCC(O)(CC(=O)Nc3cccc(Sc4cnc(N5CCC(C)(CN)CC5)cn4)c3Cl)CC2)c1 [Example 20]
2 | 23.5% | 72% | 91.5% | Cc1ncsc1-c1ccc(CNC(=O)[C@@H]2C[C@@H](O)CN2C(=O)[C@@H](NC(=O)C2(F)CC2)C(C)(C)C)c(OCCC2CCN(C(=O)C(=O)Nc3cccc(Sc4cnc(N5CCC(C)(CN)CC5)cn4)c3Cl)CC2)c1 [Example 27, (2S,4R)—N-(2-(2-(1-(2-((3-((5-(4-(aminomethyl)-4-methylpiperidin-1-yl)pyrazin-2-yl)thio)-2-chlorophenyl)amino)-2-oxoacetyl)piperidin-4-yl)ethoxy)-4-(4-methylthiazol-5-yl)benzyl)-1-((S)-2-(1-fluorocyclopropane-1-carboxamido)-3,3-dimethylbutanoyl)-4-hydroxypyrrolidine-2-carboxamide]
3 | 19% | 76.5% | 94% | Cc1ncsc1-c1ccc(CNC(=O)[C@@H]2C[C@@H](O)CN2C(=O)[C@@H](NC(=O)C2(F)CC2)C(C)(C)C)c(OCCCC2CCN(C(=O)C(=O)Nc3cccc(Sc4cnc(N5CCC(C)(CN)CC5)cn4)c3Cl)CC2)c1 [Example 28, (2S,4R)—N-(2-(3-(1-(2-((3-((5-(4-(aminomethyl)-4-methylpiperidin-1-yl)pyrazin-2-yl)thio)-2-chlorophenyl)amino)-2-oxoacetyl)piperidin-4-yl)propoxy)-4-(4-methylthiazol-5-yl)benzyl)-1-((S)-2-(1-fluorocyclopropane-1-carboxamido)-3,3-dimethylbutanoyl)-4-hydroxypyrrolidine-2-carboxamide]

The next lines start with the molecule.

Row | Compound | SHP2 degradation (%) 10 nM | SHP2 degradation (%) 100 nM | SHP2 degradation (%) 1000 nM
4 | Cc1ncsc1-c1ccc(CNC(=O)[C@@H]2C[C@@H](O)CN2C(=O)[C@@H](NC(=O)C2(F)CC2)C(C)(C)C)c(OCCCN2CCC(CC(=O)Nc3cccc(Sc4cnc(N5CCC(C)(N)CC5)cn4)c3Cl)CC2)c1 [Example 8, (2S,4R)—N-(2-(3-(4-(2-((3-((5-(4-amino-4-methylpiperidin-1-yl)pyrazin-2-yl)thio)-2-chlorophenyl)amino)-2-oxoethyl)piperidin-1-yl)propoxy)-4-(4-methylthiazol-5-yl)benzyl)-1-((S)-2-(1-fluorocyclopropane-1-carboxamido)-3,3-dimethylbutanoyl)-4-hydroxypyrrolidine-2-carboxamide] | 39.5% | 92.6% | 96.5%
5 | Cc1ncsc1-c1ccc(CNC(=O)[C@@H]2C[C@@H](O)CN2C(=O)[C@@H](NC(=O)C2(F)CC2)C(C)(C)C)c(OCCCN2CCC(CC(=O)Nc3cccc(Sc4ncc(N5CCC(C)(N)CC5)nc4N)c3Cl)CC2)c1 [Example 9, (2S,4R)—N-(2-(3-(4-(2-((3-((3-amino-5-(4-amino-4-methylpiperidin-1-yl)pyrazin-2-yl)thio)-2-chlorophenyl)amino)-2-oxoethyl)piperidin-1-yl)propoxy)-4-(4-methylthiazol-5-yl)benzyl)-1-((S)-2-(1-fluorocyclopropane-1-carboxamido)-3,3-dimethylbutanoyl)-4-hydroxypyrrolidine-2-carboxamide] | 39.6% | 93.3% | 95.6%
6 | Cc1ncsc1-c1ccc(CNC(=O)[C@@H]2C[C@@H](O)CN2C(=O)[C@@H](NC(=O)C2(F)CC2)C(C)(C)C)c(OCCCN2CCC(CC(=O)Nc3cccc(Sc4ncc(N5CCC(C)(CN)CC5)nc4N)c3Cl)CC2)c1 [Example 10, (2S,4R)—N-(2-(3-(4-(2-((3-((3-amino-5-(4-(aminomethyl)-4-methylpiperidin-1-yl)pyrazin-2-yl)thio)-2-chlorophenyl)amino)-2-oxoethyl)piperidin-1-yl)propoxy)-4-(4-methylthiazol-5-yl)benzyl)-1-((S)-2-(1-fluorocyclopropane-1-carboxamido)-3,3-dimethylbutanoyl)-4-hydroxypyrrolidine-2-carboxamide] | 33.7% | 90.9% | 95.0%
7 | Cc1ncsc1-c1ccc(CNC(=O)[C@@H]2C[C@@H](O)CN2C(=O)[C@@H](NC(=O)C2(F)CC2)C(C)(C)C)c(OCCCN2CCC(CC(=O)Nc3cccc(Sc4cnc(N5CC[C@H](CN)C5)cn4)c3Cl)CC2)c1 [Example 11, (2S,4R)—N-(2-(3-(4-(2-((3-((5-((R)-3-(aminomethyl)pyrrolidin-1-yl)pyrazin-2-yl)thio)-2-chlorophenyl)amino)-2-oxoethyl)piperidin-1-yl)propoxy)-4-(4-methylthiazol-5-yl)benzyl)-1-((S)-2-(1-fluorocyclopropane-1-carboxamido)-3,3-dimethylbutanoyl)-4-hydroxypyrrolidine-2-carboxamide] | −8.9% | 19.2% | 35.9%
8 | CC(=O)N[C@H](C(=O)N1C[C@H](O)C[C@H]1C(=O)NCc1ccc(-c2scnc2C)cc1OCCCN1CCC(CC(=O)Nc2cccc(Sc3cnc(N4CCC(C)(CN)CC4)cn3)c2Cl)CC1)C(C)(C)C [Example 12, (2S,4R)-1-((S)-2-acetamido-3,3-dimethylbutanoyl)-N-(2-(3-(4-(2-((3-((5-(4-(aminomethyl)-4-methylpiperidin-1-yl)pyrazin-2-yl)thio)-2-chlorophenyl)amino)-2-oxoethyl)piperidin-1-yl)propoxy)-4-(4-methylthiazol-5-yl)benzyl)-4-hydroxypyrrolidine-2-carboxamide] | 23.9% | 88.4% | 93.3%
